Test results reported in patent publication US11439670B2, “Akkermansia muciniphila EB-AMDK27 strain and use thereof” (ENTEROBIOME INC., priority 2019, dated 2022).
≈ marks a conversion by molar mass, not a printed value.

Assays:
Type in all cases: cell-based
[1] = tested on: Akkermansia muciniphila ATCC BAA-835; experiment: Utilization of carbohydrates, API50CH kit (type strain)
Description: (§1) In order to examine the utilization of carbohydrates by the isolated Akkermansia muciniphila strain of the present invention, the strain was cultured using an API50CH kit (Biomerieux, France), and then whether the strain would grow using each carbohydrate was compared with the type strain (ATCC BAA-835).

[2] = tested on: Akkermansia muciniphila EB-AMDK27 strain; experiment: Utilization of carbohydrates, API50CH kit (isolated strain)
Description: as §1

[3] = tested on: Akkermansia muciniphila EB-AMDK27 strain; experiment: Antimicrobial susceptibility, MIC by broth microdilution (CLSI); conditions: EBAMDK27STRAIN, read-out: MIC, Test strain EB-AMDK27
[4] = tested on: Bacteroides thetiotaomicron ATCC 29741; experiment: Antimicrobial susceptibility, MIC by broth microdilution (CLSI), QC strain; design: MIC, QC ATCC 29741: unit not given beside the values; conditions: for MIC: Bacteroides, ATCC29741, read-out: MIC, QC ATCC 29741

Molecule	growth using each carbohydrate, ATCC BAA-835 [1]	growth using each carbohydrate, EB-AMDK27 [2]	MIC [3] [µg/mL]	MIC [4] [µg/mL]	MIC, QC ATCC 29741 ([4]; broth microdilution)
N#C[C@H](O[C@@H]1O[C@H](CO[C@@H]2O[C@H](CO)[C@@H](O)[C@H](O)[C@H]2O)[C@@H](O)[C@H](O)[C@H]1O)c1ccccc1 [Amygdaline]	−	−			
OC[C@H]1O[C@@H](Oc2ccc(O)cc2)[C@H](O)[C@@H](O)[C@@H]1O [Arbutine]	−	−			
O=C(N[C@H](CO)[C@H](O)c1ccc([N+](=O)[O-])cc1)C(Cl)Cl [CHL, Chloramphenicol]			4 (≈ 12.4 µM)	8 (≈ 24.8 µM)	
CCC[C@@H]1C[C@@H](C(=O)N[C@@H]([C@H]2O[C@H](SC)[C@H](O)[C@@H](O)[C@H]2O)[C@H](C)Cl)N(C)C1 [CLI, Clindamycin]			≤ 0.125		
CO/N=C(\C(=O)N[C@@H]1C(=O)N2C(C(=O)O)=CCS[C@H]12)c1csc(N)n1 [CTZ, Ceftizoxime]			2 (≈ 5.22 µM)	16 (≈ 41.7 µM)	
OC[C@@H](O)C(O)[C@H](O)CO [D-Arabitol]	−	−			
OC[C@H]1O[C@@H](O[C@H]2[C@H](O)[C@@H](O)[C@H](O)O[C@@H]2CO)[C@H](O)[C@@H](O)[C@@H]1O [D-Cellobiose]	−	−			
OC[C@H]1O[C@H](O[C@H]2[C@H](O)[C@@H](O)[C@H](O)O[C@@H]2CO)[C@H](O)[C@@H](O)[C@@H]1O [D-Maltose]	−	−			
OC[C@H]1O[C@@](CO)(O[C@H]2O[C@H](CO)[C@@H](O)[C@H](O)[C@H]2O)[C@@H](O[C@H]2O[C@H](CO)[C@@H](O)[C@H](O)[C@H]2O)[C@@H]1O [D-Melezitose]	−	−			
OC[C@H]1O[C@H](OCC2O[C@@H](O)[C@H](O)[C@@H](O)[C@@H]2O)[C@H](O)[C@@H](O)[C@H]1O (stereo partly drawn) [D-Melibiose]	−	−			
OC[C@H]1O[C@H](OC[C@H]2O[C@H](O[C@]3(CO)O[C@H](CO)[C@@H](O)[C@@H]3O)[C@H](O)[C@@H](O)[C@@H]2O)[C@H](O)[C@@H](O)[C@H]1O [D-Raffinose]	−	−			
OC[C@H]1O[C@@](CO)(O[C@H]2O[C@H](CO)[C@@H](O)[C@H](O)[C@H]2O)[C@@H](O)[C@@H]1O [D-Saccharose (sucrose), D-Saccharose]	−	−			
OC[C@H]1O[C@H](O[C@H]2O[C@H](CO)[C@@H](O)[C@H](O)[C@H]2O)[C@H](O)[C@@H](O)[C@@H]1O [D-Trehalose]	−	−			
OC[C@@H](O)[C@H](O)[C@H](O)[C@@H](O)CO [Dulcitol]	−	−			
O=c1ccc2cc(O[C@@H]3O[C@H](CO)[C@@H](O)[C@H](O)[C@H]3O)c(O)cc2o1 [Esculine]	−	−			
CCN1C[C@]2(COC(=O)c3ccccc3N)CC[C@H](OC)[C@]34C5C[C@@H]6[C@@H](OC)C[C@@](O)(C5[C@H]6OC)[C@@](O)(C13)[C@@H](OC)C24 (some centres unmarked) [Inuline]	−	−			
OC[C@H](O)C(O)[C@@H](O)CO [L-Arabitol]	−	−			
C[C@@H](O)[C@H]1C(=O)N2C(C(=O)O)=C(S[C@@H]3CN[C@H](C(=O)N(C)C)C3)[C@H](C)[C@H]12 [MEM, Meropenem]			0.5 (≈ 1.3 µM)	0.5 (≈ 1.3 µM)	
Cc1ncc([N+](=O)[O-])n1CCO [MTZ, Metronidazole]			0.25 (≈ 1.46 µM)	2 (≈ 11.7 µM)	
COc1c(N2C[C@@H]3CCCN[C@@H]3C2)c(F)cc2c(=O)c(C(=O)O)cn(C3CC3)c12 [MXF, Moxifloxacin]			> 32	8 (≈ 19.9 µM)	
CO[C@H]1O[C@H](CO)[C@@H](O)[C@H](O)[C@H]1O [Methyl-α D-glucopyranoside]	−	−			
CO[C@H]1O[C@H](CO)[C@@H](O)[C@H](O)[C@@H]1O [Methyl-α D-mannopyranoside]	−	−			
O=C([O-])C(=O)C(O)C(O)C(O)CO.[K+] (centres unmarked) [Potassium 2-Ketogluconate]	−	−			
OCc1ccccc1O[C@@H]1O[C@H](CO)[C@@H](O)[C@H](O)[C@H]1O [Salicine]	−	−			
CO[C@H]1OC[C@@H](O)[C@H](O)[C@H]1O [α-Methyl-xyloside]	−	−			
Amidon [Amidon (starch)]	−	−			
D-Turanose	−	−			
Glycogene	−	−			
Piperacillin-Tazobactam [PTZ]					8/4
